Molecules are shown by their SMILES.

What is called inhibition is the share of the control response that was lost under treatment.

In the first test the test system is Escherichia coli. Nature of the test: Compound was tested for its ability to inhibit DNA strand scission induced by resveratrol and Cu2+, at concentration 50 mM. The test is classed as functional.
In turn, `[I-].[K+]` [POTASSIUM IODIDE] gave an inhibition at 50000 µM of 61.5%.
Compound `OC[C@@H](O)[C@@H](O)[C@H](O)[C@H](O)CO` [MANNITOL] returned an inhibition at 50000 µM of 0.6%.
The same measure, in the same setting: the value for `C[S+](C)[O-]` [DIMETHYL SULFOXIDE] was 2.8%; that for `CCO` [ALCOHOL] was 1.9%; that for `NC(N)=S` [THIOUREA] was 93.8%.
As to `[N-]=[N+]=[N-]` [SODIUM AZIDE], 50000 µM produced 1.2% inhibition.

The next test concerns Escherichia coli. The experiment in a line: Compound was tested for its ability to inhibit DNA strand scission induced by resveratrol and Cu2+, at concentration 1 mM. The test is classed as functional.
For the compound `O=S(=O)(O)c1cc(O)c(O)c(S(=O)(=O)O)c1` [TIRON], at 1000 µM the inhibition was 96.5%.
On the same count and under the same terms, under `Cc1ccoc1C` stands 98.7%.

(Values after ChEMBL document CHEMBL1130669, “Resveratrol as a new type of DNA-cleaving agent” (1998).)
